Article PMC4320118, “Micheliolide Derivative DMAMCL Inhibits Glioma Cell Growth In Vitro and In Vivo” (PLoS ONE, 2015)
Marks after values point to notes of the source that are not given here.

Experiments:
[1] = cited from earlier work
[2] = test system: primary acute myeloid leukemia (AML) cells; details: cited from earlier work
[3] = test system: human U251 glioma xenografts; parameters: method as in PMID 21559510; details: human U251 glioma xenografts ref 12; cited from earlier work
[4] = test system: rat 9L gliosarcomas; parameters: method as in PMID 21559510; details: cited from earlier work
[5] = test system: intracerebral C6 glioma
Description: Adult Wistar rats (120–180 g, age 4–8 weeks) were obtained from the Animal Center at the Academy of Military Medical Sciences and had animal certification of SCXK (army) 2012–001. Animals were housed in collective cages at a temperature of 23 ± 2°C and relative humidity of 40% to 70%. All rats had free access to food and water.
Intracerebral tumor implantations were performed according to the following procedures. C6 tumors were maintained as subcutaneous tumors in rats. Subcutaneous masses were excised, dissociated, and mixed with matrigel on ice (BD Biosciences) at a ratio of 1:1. After removing of the hair on the skull, a small midline incision in the scalp was gently made under anesthesia with 2% sodium pentobarbital at a dose of 40mg/kg. C6 cells in matrigel (0.1 mL of the cell/matrigel mixture containing 10^8 cells /mL) were carefully injected into the right frontal cortex by a special 16-gauge stainless steel needle with 5 mm needle tubing. Implantation coordinates were determined from Swanson’s Stereotaxic Atlas guidelines (1992): 1.0 mm anterior and 3.0 mm lateral to bregma, at a depth of 5.0 mm from the brain surface. […] The syringe was slowly retracted, the hole was sealed with bone wax, and the incision was sutured under aseptic conditions. […] Then 0.015 mg/kg buprenorphine (s.c.) was administered to relieve the pain. The rats were replaced in cages and allowed to recover from anesthesia.
Rats were divided into the following 5 treatment groups 24 h after surgery (n = 9 rats /group) according to rat weight: 1) vehicle (normal saline: NS); 2) vincristine (VCR) at 100μg/kg; 3) DMAMCL at 25 mg/kg; 4) DMAMCL at 50 mg/kg; and 5) DMAMCL at 100 mg/kg. All drugs were prepared in NS and administered once daily for 21 days. DMAMCL was administered orally, and VCR was injected into the caudal vein. Rats were weighed and monitored for signs of mortality daily. Twenty one days into the treatment, rats were euthanized via CO2 asphyxiation under deep anesthesia by sodium pentobarbital. Brains and tumors were separated from the cerebellum and medulla oblongata, and weighed, photographed, fixed in formalin, and embedded in paraffin for sectioning. The tumor: brain weight ratio was assessed to observe the degree of tumor cell growth in brain. Serial sections (5 μm in thickness) were stained by hematoxylin and eosin (HE).

[6] = test system: intracerebral C6 glioma; assay: Survival time analysis in C6 intracerebral glioma rats; assay type: in vivo, Wistar rats; details: VCR, treated daily for 21 days
Description: C6 tumors were maintained as subcutaneous tumors in rats.
The survival time analyses were performed in C6 intracerebral glioma rats. […] Animals were monitored daily for signs of mortality and weight. Rats were sacrificed when a loss of mobility, lethargy, hemorrhaging around the eyes, or a hunched posture was observed as previously described. The observation time was terminated when all the vehicle rats died. Then the other rats were euthanized by CO2 asphyxiation.

[7] = test system: rat 9L gliosarcoma; parameters: method as in PMID 21727209; details: direct injection into the brain using biodegradable beads, increased from 12.5 days ref 26; cited from earlier work
[8] = VCR 100μg/kg caudal vein once daily for 21 days

C=C1C(=O)O[C@H]2[C@H]1CCC(C)=C1CC[C@@](C)(O)[C@@H]12 [MCL, micheliolide]
Stability compared with PTL [1]: more stable than PTL | Number of colony-forming units of primary AML cells [2]: greatly reduced the number of colony-forming units

C=CCc1ccc(O)c(-c2ccc(O)c(CC=C)c2)c1 [Honokiol]
Reduction of tumor volume [3]: 50.21% | Increase of survival compared to controls [4]: 5 days | Reduction of tumor volume ([4]; rat 9L gliosarcomas ref 12): 52.77%

C=C1C(=O)O[C@H]2[C@H]1CC/C(C)=C/CC[C@@]1(C)O[C@@H]21 [PTL, Parthenolide]
Stability ([1]; acidic and basic conditions ref 15): unstable under both acidic and basic conditions

CC[C@]1(O)C[C@H]2CN(CCc3c([nH]c4ccccc34)[C@@](C(=O)OC)(c3cc4c(cc3OC)N(C=O)[C@H]3[C@@](O)(C(=O)OC)[C@H](OC(C)=O)[C@]5(CC)C=CCN6CC[C@]43[C@@H]65)C2)C1 [VCR, vincristine, reference compound]
Deaths during the 21-day study ([5]; VCR 100μg/kg caudal vein once daily): One rat died on day 18 | Inhibition (percent decrease in tumor weight compared to the vehicle group) [5, 8]: 81.6% | Tumor weight [5, 8]: 0.13 ± 0.07 g | Tumor/brain [5, 8]: 6.5 ± 2.6 % | Histopathology of brain tissue (HE) ([5]; VCR 100μg/kg, 21 days): appeared similar to normal brain tissues | Median survival of deceased animals [6]: 24 days | Time of death End [6]: 57 days | Time of death Start [6]: 23 days | Survival (# of rats) End ([6]; 63 days, n = 10): 7 # of rats | Survival ([6]; at 63 days): 70 ^*** % | Mean survival ([6]; observation 63 days): 54.5 ± 16.4 days | Median survival ([6]; observation 63 days): 63 days

CO[C@H]1C[C@@H]2CC[C@@H](C)[C@@](O)(O2)C(=O)C(=O)N2CCCC[C@H]2C(=O)O[C@H]([C@H](C)C[C@@H]2CC[C@@H](O)[C@H](OC)C2)CC(=O)[C@H](C)/C=C(\C)[C@@H](O)[C@@H](OC)C(=O)[C@H](C)C[C@H](C)/C=C/C=C/C=C/1C [rapamycin, Rapamycin]
Survival [7]: 29 days
